Assay results from ChEMBL document CHEMBL5113389, “Topoisomerase I inhibitors: Challenges, progress and the road ahead” (Eur J Med Chem, 2022).
One block for each compound: values may come before it.

Experiments:
P388 [1] = experiment: Cytotoxicity against mouse P388 cells assessed as cell growth inhibition incubated for 3 to 4 days by MTT assay; type: functional, cell-based
U-937 = experiment: Cytotoxicity against human U-937 cells assessed as cell growth inhibition incubated for 3 to 4 days by MTT assay; type: functional, cell-based
[2] = Cytotoxicity against human U-937/CR cells assessed as cell growth inhibition incubated for 3 to 4 days by MTT assay; type: functional, cell-based
P388CPT45 = experiment: Cytotoxicity against mouse P388CPT45 cells assessed as cell growth inhibition incubated for 3 to 4 days by MTT assay; type: functional, cell-based
CCRF-CEM = experiment: Cytotoxicity against human CEM cells assessed as cell growth inhibition; type: functional, cell-based
P388 [3] = experiment: Cytotoxicity against mouse P388 cells assessed as cell growth inhibition; type: functional, cell-based
RPMI 8402 = experiment: Cytotoxicity against human RPMI 8402 cells assessed as cell growth inhibition measured after 4 days by MTT assay; type: functional, cell-based; settings: RPMI 8402, 96 h
[4] = target: T1, DNA topoisomerase 1 (Homo sapiens) (UniProt P11387); experiment: Inhibition of human Top1 expressed in Escherichia coli assessed as enzyme-mediated DNA cleavage by measuring relative effective concentration incubated for 30 mins relative to topotecan
T1 sequence (whole entry): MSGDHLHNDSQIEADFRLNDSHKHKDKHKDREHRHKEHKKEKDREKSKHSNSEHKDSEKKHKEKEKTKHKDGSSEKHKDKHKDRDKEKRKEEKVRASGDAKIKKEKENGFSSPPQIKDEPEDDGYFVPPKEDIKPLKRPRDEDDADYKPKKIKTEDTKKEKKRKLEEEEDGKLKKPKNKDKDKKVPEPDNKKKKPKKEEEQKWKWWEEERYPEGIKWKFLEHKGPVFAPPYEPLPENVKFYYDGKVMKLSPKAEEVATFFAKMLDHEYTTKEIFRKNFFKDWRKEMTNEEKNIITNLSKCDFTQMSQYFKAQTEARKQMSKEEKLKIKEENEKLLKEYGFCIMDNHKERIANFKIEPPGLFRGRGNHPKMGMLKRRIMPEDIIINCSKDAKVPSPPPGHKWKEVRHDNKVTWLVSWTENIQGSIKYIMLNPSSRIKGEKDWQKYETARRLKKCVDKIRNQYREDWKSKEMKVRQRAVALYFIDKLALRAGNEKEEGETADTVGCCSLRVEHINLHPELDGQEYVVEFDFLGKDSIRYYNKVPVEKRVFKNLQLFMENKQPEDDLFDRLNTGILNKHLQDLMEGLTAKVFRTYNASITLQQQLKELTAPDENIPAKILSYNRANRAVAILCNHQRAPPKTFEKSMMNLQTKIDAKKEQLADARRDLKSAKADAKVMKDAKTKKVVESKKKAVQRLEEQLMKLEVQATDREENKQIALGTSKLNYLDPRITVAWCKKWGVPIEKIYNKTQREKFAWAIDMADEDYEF

HCT-116 [5] = experiment: Cytotoxicity against human HCT-116 cells assessed as cell growth inhibition measured after 4 days by MTT assay; type: functional, cell-based; settings: HCT-116, 96 h
[6] = target: T1, DNA topoisomerase 1 (Homo sapiens); experiment: Inhibition of full-length recombinant human Top1 expressed in baculovirus infected Sf9 insect cells at 5 uM incubated for 30 mins relative to control
[7] = target: T1, DNA topoisomerase 1 (Homo sapiens); experiment: Inhibition of Top1 in [3H]-Thymidine-labeled human MCF7 cells assessed as Top1-DNA complex formation at 30 uM incubated for 60 mins followed by addition of salmon sperm DNA and subsequent addition of KCl relative to control; type: cell-based
K5 = experiment: Cytotoxicity against human camptothecin-resistant K5 cells assessed as cell growth inhibition measured after 4 days by MTT assay; type: functional, cell-based; settings: K5, 96 h
K562 = experiment: Cytotoxicity against human K562 cells assessed as cell growth inhibition incubated for 72 hrs by MTT assay; type: functional, cell-based; settings: K562, 72 h
HCT-116 [8] = experiment: Cytotoxicity against human HCT-116 cells assessed as cell growth inhibition incubated for 72 hrs by MTT assay; type: functional, cell-based; settings: HCT-116, 72 h
MCF7 = experiment: Cytotoxicity against human MCF7 cells assessed as cell growth inhibition incubated for 3 days by SRB assay; type: functional, cell-based; settings: MCF7, 72 h
HCT-116 [9] = experiment: Cytotoxicity against human HCT-116 cells assessed as cell growth inhibition incubated for 3 days by SRB assay; type: functional, cell-based; settings: HCT-116, 72 h

SMILES: COc1cc2ccc3c4cc5c(cc4ncc3c2cc1OC)OCO5
IC50 (P388 [1]): 190 nM | IC50 (U-937): 40 nM | IC50 [2]: 50 nM | IC50 (P388CPT45): 180 nM

SMILES: COc1cc(-c2c3c4cc(OC)c(O)cc4oc(=O)c3n3ccc4cc(O)c(OC)cc4c23)ccc1O [LAMELLARIN D]
IC50 (CCRF-CEM): 14 nM | IC50 (P388 [3]): 136 nM

SMILES: COc1cc2c(=O)n(CCN(C)C)c3c4ccc([N+](=O)[O-])cc4ncc3c2cc1OC
IC50 (RPMI 8402): 75 nM

SMILES: COc1cc2c(=O)n(CCN(C)C)c3c4cc([N+](=O)[O-])ccc4ncc3c2cc1OC
IC50 (RPMI 8402): 18 nM

Ratio [4]: 0.1
SMILES: CN(C)CCn1c(=O)c2cc([N+](=O)[O-])ccc2c2cnc3cc4c(cc3c21)OCO4
IC50 (RPMI 8402): 2 nM

SMILES: COc1ccc2c(ccc3c4cc5c(cc4nnc23)OCO5)c1
IC50 (HCT-116 [5]): 40 nM | IC50 (RPMI 8402): 70 nM

inhibition [6]: 54%
SMILES: O=c1c2ccccc2nc2n1Cc1cc3c(Br)cccc3nc1-2

inhibition [7]: 24.2%
SMILES: CN1c2ccccc2C(=O)N2CCc3c([nH]c4ccccc34)C21 (stereo not given)

SMILES: COc1cc2ncc3c4cc5c(cc4ccc3c2cc1OC)OCO5
IC50 (K5): 10800 nM | IC50 (RPMI 8402): 4500 nM

inhibition [6]: 18%
SMILES: O=c1c2ccccc2nc2n1Cc1cc3ccccc3nc1-2

SMILES: O=c1c2ccccc2nc2n1Cc1c-2nc2ccccc2c1C(F)(F)F
IC50 (K562): 21000 nM | IC50 (HCT-116 [8]): 17000 nM

inhibition [6]: 48%
SMILES: O=c1c2ccccc2nc2n1Cc1cc3c(Cl)cccc3nc1-2

SMILES: COc1cc2c(=O)n(CCN(C)C)c3c4cc(N)ccc4ncc3c2cc1OC
IC50 (RPMI 8402): 40 nM

SMILES: COc1cc2c(=O)n(CCN(C)C)c3c4ccc(N)cc4ncc3c2cc1OC
IC50 (RPMI 8402): 100 nM

SMILES: CC[C@@]1(O)C(=O)Cc2c1cc1n(c2=O)Cc2c-1nc1cc3c(cc1c2C1CCC1)OCO3
IC50 (MCF7): 3 nM | IC50 (HCT-116 [9]): 6 nM

SMILES: CN(C)CCn1c(=O)c2ccc([N+](=O)[O-])cc2c2cnc3cc4c(cc3c21)OCO4
IC50 (RPMI 8402): 3 nM
